Values of other authors, collected in patent US20070225340A1, “Phenyl Compounds And Their Use In The Treatment Of Conditions Mediated By The Action Of Pge2 At The Ep1 Receptor” (Glaxo Group Limited, priority 2004, published 2007).

Key:
[1] = target: T1, EP1 receptor (Rattus norvegicus, UniProt P70597); design: host or cells: living rodent (in vivo pain model); conditions: rodent, post-operative pain; Anesthesia and Analgesia 2001, 92, 233-238
T1 sequence (P70597 1-405): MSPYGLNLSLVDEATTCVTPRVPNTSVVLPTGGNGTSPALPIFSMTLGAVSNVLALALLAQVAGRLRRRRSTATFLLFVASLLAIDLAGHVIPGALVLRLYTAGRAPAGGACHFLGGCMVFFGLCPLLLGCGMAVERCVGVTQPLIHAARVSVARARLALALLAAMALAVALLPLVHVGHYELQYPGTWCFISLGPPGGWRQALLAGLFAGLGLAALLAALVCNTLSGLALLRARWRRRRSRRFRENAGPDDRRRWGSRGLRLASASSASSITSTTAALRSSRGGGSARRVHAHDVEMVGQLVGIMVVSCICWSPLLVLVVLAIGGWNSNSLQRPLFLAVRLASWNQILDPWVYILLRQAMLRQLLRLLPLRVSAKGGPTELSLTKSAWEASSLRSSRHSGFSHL

[2] = target: T1, EP1 receptor; design: host or cells: living rat (in vivo pain model); conditions: chronic constriction injury, Anesthesia and Analgesia 2001, 93, 1012-7

Cc1cc(Cl)ccc1S(=O)(=O)NC[C@H]1C2CCC(CC2)[C@@H]1/C=C\CCCC(=O)O [ONO-8711]
effect on mechanical hyperalgesia [1]: inhibits mechanical hyperalgesia | effect on hyperalgesia and allodynia [2]: reduces hyperalgesia and allodynia
